The source of these data is patent US9580414B2, “Salts and hydrates of antipsychotics” (SHASUN PHARMACEUTICALS LIMITED, priority 2012, dated 2017).

Structures are written as SMILES. Several values for one entry are separate records, joined by “and”; a condition that tells them apart may be missing. Equal entries are not always repeated. Structures can show the parent of a compound that is named as a salt. Where two headings read alike, the source gives them in different places.

As a reminder, the AUC(0-inf) is total exposure, with the tail of the curve extrapolated. The AUC(0-t) is the area under the concentration-time curve up to a stated or last time point. The low end stands for low exposure, the high end for high exposure. As a reminder, the Cmax is the peak of the concentration-time curve. The MRT last is the average time that molecules of a dose stay in the body. One may read the half-life as the time in which the quantity being followed falls by half. Low values mean rapid decline, high ones slow decline. By Tmax is commonly meant the time from dosing to the highest level.

Data set [1] in a line: Single dose oral pharmacokinetics comparative study of Lurasidone monohydrochloride v. dihydrochloride. Type of data set: in vivo. Particulars: 10 mg/kg, mean plasma, oral gavage, male Sprague Dawley rats. The method, then:
Lurasidone salts mean plasma PK parameters were quantified with an API 3200 LC-MS/MS system and illustrated in Table 1.
Male Sprague Dawley rats aged 6-8 weeks and weighing 180-220 g will be used for experiment. Animals will be acclimatized for a minimum period of 5 days. Overnight fasted animals were administered the test substance by oral gavage with a dose equivalent dose of 10 mg/kg of the parent compound with ready to use formulation provided and at a dose volume of 10.06 & 9.6 mL/kg b.w. With mild inhalation anesthesia (Isoflurane), blood samples (200-250 μL) were collected by retro-orbital route at specified time points. Lurasidone hydrochloride and dihydrochloride samples were administered by oral route at a dose volume of 10.06 & 9.6 mL/kg body weight respectively. The actual dosage volume for each animal were calculated based on the fasted body weight. All the animals were administered a single dose on the day of experiment. Blood samples were collected in pre-labeled centrifuge tubes containing anticoagulant (K2EDTA). Blood sampling time points for both the groups were as follows Group 1 & 2—Subgroup 1 (n=5)—0.08, 0.16, 0.33, 0.5, 0.67, 0.83, 1.00 & Subgroup 2 (n=5)—1.5, 2, 3, 6, 12, 18, 24 h. All the animals were administered a single dose on the day of experiment. Blood samples were centrifuged at 4000 rpm at 4° C. for 10 minutes and the corresponding plasma samples were harvested into pre-labeled tubes. Plasma samples will be stored at −80° C. until analysis. The blood samples were centrifuged at 4000 rpm for 10 minutes at 4° C. and the corresponding plasma samples were transferred to clean pre-labeled tubes and stored at −80° C. until analysis.

A short description of data set [2]: Stability by storage under accelerated stability testing conditions. The conditions noted are these: storage at 40° C., 75% RH and 50° C., 90% RH. Type of data set: physicochemical.
The nature of data set [3]: Comparative solubility study in McIlvaine Buffer pH 3.8. Type of data set: physicochemical. Here is the method: The solubility study was performed for the dihydrochloride salt of the present invention using the McIlvaine Buffer pH 3.8.
A short description of data set [4]: Solubility assayed in water. The conditions noted are these: water and mixtures of water with water-miscible solvents; qualitative. Type of data set: physicochemical. The method, then:
In particular, the solubility of the compounds of the present invention in comparison with hydrochloride was assayed in water and recorded.

For data set [5] the following is noted: cited from earlier work.
The conditions of data set [6]: in vivo; cited from earlier work.
Data set [7] is described as follows: Comparative solubility study in McIlvaine Buffer pH 3.8. In kind it is physicochemical. The source holds these as a separate data set.
Where [8] appears, read: male, Sprague Dawley, rat, plasma, po.
Setting [9] is: listed as Monohydrochloride, hydrochloride.

In data set [1] (setting [8]), `O=C1[C@@H]2[C@H]3CC[C@H](C3)[C@@H]2C(=O)N1C[C@@H]1CCCC[C@H]1CN1CCN(c2nsc3ccccc23)CC1` [Di HCl Salt, (3aR,4S,7R,7aS)-2-{(1R,2R)-2-[4-(1,2-benzisothiazol-3-yl)piperazin-1-ylmethyl]cyclohexylmethyl}hexahydro-4,7-methano-2H-isoindole-1,3-dione dihydrochloride dihydrate] had an AUC(0-inf) of 577 ng·h/mL and an AUC(0-t) of 570 ng·h/mL. In addition, the Cmax in data set [1] (male, Sprague Dawley, rat, plasma, po, read-out: Cmax) stood at 659 ng/mL. Also, in data set [1] (dihydrochloride dihydrate), the AUCextrap is 1.29%, the MRTlast amounted to 1.05 h and the T1/2 amounted to 1.07 h. Besides, in data set [2], the stability profile result is listed as “excellent stability profile”. In addition, in data set [3] (average of sample 1 and 2, dihydrochloride dihydrate), the “Solubility (mg/ml) Avg.” value was 0.6472 mg/mL and 0.9020 mg/mL. Moreover, in data set [3] (sample 1, dihydrochloride dihydrate), the “Solubility (mg/ml) Sample 1” value was 0.7220 mg/mL and 0.9548 mg/mL. The “Solubility (mg/ml) Sample 2” value in data set [3] (sample 2, dihydrochloride dihydrate) was 0.5724 mg/mL and 0.8498 mg/mL. The solubility in water entry in data set [4] is “excellent solubility”.

For `O=C1[C@@H]2[C@H]3CC[C@H](C3)[C@@H]2C(=O)N1C[C@@H]1CCCC[C@H]1CN1CCN(c2nsc3ccccc23)CC1` [Mono HCl Salt, (3aR,4S,7R,7aS)-2-[((1R,2R)-2-{[4-(1,2-benzisothiazol-3-yl)-piperazin-1-yl]methyl}cyclohexyl)methyl]hexahydro-1H-4,7-methanisoindol-1,3-dione hydrochloride], in data set [5] (0.1 N HCl), the “solubility in 0.1 N HCl” value was “practically insoluble”. For the same compound, the solubility in water result in data set [5] (water) is “very slightly soluble”. Moreover, in data set [1] (setting [8]), the MRT last was 0.95 h and the half-life is 1.19 h. Also, in data set [1] (setting [9]), the AUCextrap came out at 1.37%, the AUCinf was determined as 357.32 ng·h/mL, the AUClast was 352.41 ng·h/mL and the Cmax is listed as 412.39 ng/mL. For the same compound, the Tmax in data set [1] (rat) came out at 0.33 h. In data set [6], the bioavailability entry is recorded as “less than 12%”. Moreover, the “Solubility (mg/ml) Avg.” value in data set [7] (average of sample 1 and 2, hydrochloride) was determined as 0.2126 mg/mL. The solubility result in data set [7] (listed as Lurasidone hydrochloride) is given as “less than 0.212 mg/ml”. The solubility entry in data set [7] (listed as mono hydrochloride salt) is reported as “around 0.212 mg/ml”. For the same compound, the “Solubility (mg/ml) Sample 1” value in data set [7] (sample 1, hydrochloride) is 0.2104 mg/mL. Besides, in data set [7] (sample 2, hydrochloride), the “Solubility (mg/ml) Sample 2” value was found to be 0.2148 mg/mL.
